Molecular target: T1, rat P2X4 rT186V mutant (Rattus norvegicus, UniProt P51577, T186V)
T1 construct: rat P2X4 (NP_113782.1; WT and mutants) were transcribed from pGEMHE plasmids; expressed in transfected cells; host or cells: Xenopus laevis oocytes injected with cRNA from pGEMHE
T1 sequence (P51577 1-388 T186V): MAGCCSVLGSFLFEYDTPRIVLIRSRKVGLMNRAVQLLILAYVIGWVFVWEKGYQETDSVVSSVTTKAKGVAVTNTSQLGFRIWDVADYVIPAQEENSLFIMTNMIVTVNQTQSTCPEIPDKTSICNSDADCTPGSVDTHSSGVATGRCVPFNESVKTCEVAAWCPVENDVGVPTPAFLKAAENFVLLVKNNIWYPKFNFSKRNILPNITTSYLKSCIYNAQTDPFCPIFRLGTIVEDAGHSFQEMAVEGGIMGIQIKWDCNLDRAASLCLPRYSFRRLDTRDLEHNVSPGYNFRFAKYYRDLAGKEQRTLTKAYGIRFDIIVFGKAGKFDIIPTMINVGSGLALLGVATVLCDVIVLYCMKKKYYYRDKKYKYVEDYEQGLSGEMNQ
Experiment: Two-Electrode Voltage Clamp recording, rat P2X4 T186V mutant in Xenopus oocytes
Type: cell-based
Conditions: 3 mM ATP, 3 mM CTP (Fig. S3)
Text: To further investigate the functional roles of the residues involved in the base recognition, T189 and R143, we performed an electrophysiological analysis with the rat P2X4, since its electrophysiological properties have been well established. We first assessed the functional role of T189 in zfP2X4 and introduced mutations at the equivalent residue of the rat P2X4 to create three mutants (^rT186A, ^rT186V and ^rT186S; the superscript “r” means rat P2X4). […] Therefore, we examined the ^rWT and the ^rT186S mutant.
The cRNAs encoding zebrafish P2X4 (NP_705939; WT) and rat P2X4 (NP_113782.1; WT and mutants) were transcribed from pGEMHE plasmids, using a mMessage mMachine® T7 ULTRA kit (Ambion, Huntingdon, Cambridgeshire, UK). Xenopus laevis oocytes were prepared, and RNA (100 ng for zebrafish P2X4, and 20 ng for rat P2X4) was injected into the oocytes. The oocytes were incubated at 18 °C in Barth’s solution, containing 88 mM NaCl, 1 mM KCl, 2.4 mM NaHCO3, 10 mM HEPES, 0.33 mM Ca(NO3)2, 0.41 mM CaCl2, and 0.82 mM MgSO4, pH 7.4, supplemented with 50 μg/ml gentamicin, and were used for recording after 2–3 days. […] Oocytes were held at −70 mV with a bath-clamp amplifier (OC-725C, Warner Co., USA), and macroscopic currents were recorded and analyzed using the pClamp 10 software (Molecular Devices, USA)[33][34]. We measured n = 4 for zebrafish P2X4 data and n = 7–9 for rat P2X4 data. […]

SMILES	nucleotide-evoked currents
Nc1ncnc2c1ncn2[C@@H]1O[C@H](COP(=O)(O)OP(=O)(O)OP(=O)(O)O)[C@@H](O)[C@H]1O [ATP, Adenosine 5-triphosphate]	no ATP- and CTP-evoked currents were detected
Nc1ccn([C@@H]2O[C@H](COP(=O)(O)OP(=O)(O)OP(=O)(O)O)[C@@H](O)[C@H]2O)c(=O)n1 [CTP]	no ATP- and CTP-evoked currents were detected

— paper PMC5362899, “Structural insights into the nucleotide base specificity of P2X receptors” (Scientific Reports, 2017)
